From publication PMC9311798, “A Novel Class of Potent Anti-Tyrosinase Compounds with Antioxidant Activity, 2-(Substituted phenyl)-5-(trifluoromethyl)benzo[d]thiazoles: In Vitro and In Silico Insights” (Antioxidants, 2022)

Assays:
[1] = system: B16F10 murine melanoma cells; experiment: B16F10 cell viability assay (EZ-Cytox); assay type: cell-based; details: concentrations ≤20 μM, 48 h
Protocol: B16F10 murine melanoma cells were obtained from the American Type Culture Collection (ATCC, Manassas, VA, USA). Phosphate buffer solution (PBS), Dulbecco’s modified Eagle’s medium (DMEM), streptomycin, penicillin, trypsin, and fetal bovine serum (FBS) were purchased from Gibco/Thermo Fisher Scientific (Carlsbad, CA, USA). B16F10 cells were cultured in a DMEM solution comprising 10% heat-inactivated FBS, penicillin (100 IU/mL), and streptomycin (100 µg/mL), at 37 °C in a humidified 5% CO2 atmosphere. Experiments for anti-melanogenesis activity, cell viability, and anti-tyrosinase activity were assayed on these cells in 96- or 6-well culture plates.
Cell viability assays for B16F10 were performed using the EZ-Cytox assay (EZ-3000, DoGenBio, Seoul, Korea). In brief, B16F10 cells were seeded in a 96-well plate at a density of 1 × 10^4 cells/well, and cultured at 37 °C for 24 h in a humidified 5% CO2 atmosphere. The next day, B16F10 cells were exposed to six concentrations of 1a or 1b (0, 1, 2, 5, 10, or 20 μM), and incubated under the same conditions for 48 h. Then, the EZ-Cytox solution (10 μL) was added to each well, and the cells mixed with the EZ-Cytox solution were further incubated for 2 h. At 450 nm, optical densities were measured using a microplate reader (VersaMax^TM, Molecular Devices, Sunnyvale, CA, USA).

[2] = biological target: T1, cellular tyrosinase in B16F10 cells (Mus musculus, UniProt P11344); experiment: Cellular tyrosinase activity (L-DOPA oxidation) in α-MSH/IBMX-stimulated cells; assay type: cell-based, murine
T1 construct: endogenous in cells; host or cells: B16F10 murine melanoma cells, stimulated with alpha-MSH and IBMX
T1 sequence (P11344 19-533): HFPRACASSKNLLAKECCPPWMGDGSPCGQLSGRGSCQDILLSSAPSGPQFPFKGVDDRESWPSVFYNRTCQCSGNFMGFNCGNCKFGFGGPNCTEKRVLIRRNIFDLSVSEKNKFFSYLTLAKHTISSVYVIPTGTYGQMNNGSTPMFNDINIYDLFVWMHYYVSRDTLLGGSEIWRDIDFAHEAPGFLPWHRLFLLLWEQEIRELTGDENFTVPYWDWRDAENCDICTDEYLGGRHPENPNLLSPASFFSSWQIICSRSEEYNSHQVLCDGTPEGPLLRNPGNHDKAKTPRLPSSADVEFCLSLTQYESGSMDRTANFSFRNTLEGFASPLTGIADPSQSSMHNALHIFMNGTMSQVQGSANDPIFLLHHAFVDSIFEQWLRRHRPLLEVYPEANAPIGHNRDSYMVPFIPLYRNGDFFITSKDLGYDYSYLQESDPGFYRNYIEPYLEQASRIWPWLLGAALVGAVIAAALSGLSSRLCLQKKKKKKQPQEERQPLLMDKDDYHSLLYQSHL
Protocol: Cellular tyrosinase activity was assessed by measuring the oxidation rate of L-DOPA as previously described, with minor modifications. In brief, B16F10 cells were seeded in a 6-well plate at 1 × 10^5 cells/well, and allowed to adhere to well bottoms for 24 h, as described in Section 2.3.5. […]. Cells were then rinsed twice with PBS, exposed to 100 µL of lysis buffer solution (90 µL of 50 mM phosphate buffer (pH 6.5), 5 µL of 2 mM PMSF, and 5 µL of 20% Triton X-100), and lysed at −80 °C for 30 min. After defrosting, cell lysates were transferred to microcentrifuge tubes and centrifuged at 12,000 rpm for 30 min at 4°C, and supernatants (80 µL) were mixed with 20 µL of L-DOPA (2 mg/mL) in a 96-well plate, and incubated for 10 min at 37 °C. Absorbances were measured at 475 nm using a microplate reader (VersaMax^TM, Molecular Devices, Sunnyvale, CA, USA).

[3] = system: tyrosinase glycosylation in B16F10 cells; experiment: Western blot of glycosylated and non-glycosylated tyrosinase; assay type: cell-based, murine; details: 2, 5, 10, 20 µM, 48 h; cytosolic fraction
Protocol: Five different concentrations of 1b (0, 2, 5, 10, and 20 µM) were exposed to B16F10 cells for 48 h, and the cells were washed with cold PBS two times, harvested, lysed, and centrifuged at 4 °C (12,000 rpm for 10 min). Cell pellets were suspended in 10 mM Tris (pH 8.0) containing 1.5 mM MgCl2, 1 mM DTT, 0.1% NP-40, and protease inhibitors (GenDEPOT), incubated on ice for 15 min, and centrifuged at 12,000× g for 15 min at 4 °C. Supernatants (cytosolic fractions) and pellets were resuspended in 10 mM Tris (pH 8.0) containing 50 mM KCl, 100 mM NaCl, and protease inhibitor, incubated on ice for 30 min, and centrifuged at 12,000× g for 15 min at 4 °C. The resultant supernatants were nuclear fractions. The protein concentrations were determined by a Bicinchoninic Acid (BCA)™ Assay Kit (Pierce, Rockford, IL, USA). The lysed protein samples were mixed in loading buffer (0.2% bromophenol blue, 12.5 mM Tris-HCl, pH 6.8, 10% 2-mercaptoethanol, and 4% SDS) at a volume ratio of 1:4, and boiled for 10 min. […] Quantification of Western blot data were analyzed by CS Analyzer 3.2 (Densitograph) image software (http://www.attokorea.co.kr, admitted on 21 May 2022).

mushroom tyrosinase = biological target: T2, mushroom tyrosinase (Agaricus bisporus, UniProt C7FF04); experiment: Mushroom tyrosinase inhibition assay; assay type: biochemical; details: L-DOPA as substrate
T2 construct: purchased Sigma-Aldrich
T2 sequence (C7FF04 1-392 limits assumed): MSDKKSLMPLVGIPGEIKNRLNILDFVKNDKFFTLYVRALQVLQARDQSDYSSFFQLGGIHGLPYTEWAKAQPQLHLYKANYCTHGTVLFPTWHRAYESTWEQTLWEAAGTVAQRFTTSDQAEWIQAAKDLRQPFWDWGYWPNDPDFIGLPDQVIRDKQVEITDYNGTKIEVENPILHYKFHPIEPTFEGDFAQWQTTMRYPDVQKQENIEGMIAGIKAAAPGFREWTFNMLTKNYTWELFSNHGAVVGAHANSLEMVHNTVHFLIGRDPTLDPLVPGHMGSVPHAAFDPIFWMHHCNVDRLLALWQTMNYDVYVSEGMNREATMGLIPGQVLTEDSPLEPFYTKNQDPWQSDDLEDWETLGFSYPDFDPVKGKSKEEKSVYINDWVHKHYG

## Oc1ccc(-c2nc3cc(C(F)(F)F)ccc3s2)c(O)c1 [Compound 1b, 4-(5-(Trifluoromethyl)benzo[d]thiazol-2-yl)benzene-1,3-diol]
[1]
  cytotoxic effect on B16F10 cell viability: Neither compound exhibited a significant cytotoxic effect
[2]; 10 µM, compared with kojic acid 20 µM
  cellular tyrosinase activity: reduced tyrosinase activity to that achieved by 20 µM kojic acid
[2]; 20 µM
  cellular tyrosinase activity: reduced tyrosinase activity to the untreated control level
[2]; 5, 10, 20 µM, IBMX + α-MSH, 48 h
  effect on cellular tyrosinase activity: significantly and concentration-dependently suppressed
[3]
  ratio of glycosylated tyrosinase to total tyrosinase: significantly reduced
Mushroom tyrosinase
  IC50: 1.7 ± 0.11 µM
